According to patent US20080213910A1, “METHOD FOR BLOCKING NON-SPECIFIC PROTEIN BINDING ON A FUNCTIONALIZED SURFACE” (priority 2006, published 2008):
Each block holds one compound with its values, some of them ahead of it.

Key:
SA surface [1] = target: T1, SA surface (Streptomyces avidinii, UniProt P22629); test: Biotin binding to SA surface in FBS, with and without trehalose blocking; details: for shift from biotin binding to SA surface: SA shift 5.8 nm
Protocol: In order to test the affect of trehalose on specific protein-protein interactions, the ability of trehalose to interfere with the ability of biotin to bind to a SA surface was measured. Biotin in either 10% or 100% FBS was allowed to react with the SA surface with the 5.8 nm PWV shift, and the resulting shift measured (see Table 8). The theoretical shift resulting from Biotin binding, shown in parenthesis, was calculated from the following formula: (Mol. Wt. of Biotin/Mol. Wt. of SA)×# of binding sites on SA for biotin×SA shift, or (244/55000)×4 (binding sites)×5.8 nm (SA shift).

Carbonic Anhydrase (CA) = test: CBS binding to carbonic anhydrase after blocking with 5% trehalose (PWV shift); details: 5% trehalose block
Protocol: FIG. 5 represents the normalized peak wavelength value (PWV) resulting from CBS binding to carbonic anhydrase after blocking with 5% trehalose.
The CA surface was blocked with 5% trehalose. Trehalose blocking of non-specific interactions of CBS to the surface enabled detection of specific binding to CA below 1 μM.

[2] = Sugars binding to amine surfaces (PWV change); details: for PWV change after over night incubation and wash: stored overnight in water
Protocol: Lactose and glyceraldehyde solutions in water at 5% and 2.5% respectively were added to a BIND™ sensor plate functionalized with amine functional groups for 2 hrs. The plate was then washed thoroughly with water and stored overnight in water. The plates were then washed again with water and the binding of sugars was measured.

SA surface [3] = target: T1, SA surface; test: Trehalose efficacy to reduce non-specific FBS binding to the SA surface; details: for FBS 10% binding to SA surface (shift normalized to trehalose shift) / FBS 100% binding to SA surface (shift normalized to trehalose shift): blocked with 5% Trehalose
Protocol: In order to test the efficacy of trehalose to reduce non-specific binding, the ability of trehalose to reduce Fetal Bovine Serum (FBS) binding to the SA surface was measured. 10% and 100% commercially available FBS was allowed to react with either the SA surface with the 2 nm PWV shift or the 5.8 nm PWV shift, and the resulting shift measured (see Table 7 and FIG. 3). The shifts were normalized to the trehalose shift by considering the resulting signal after the surface has been blocked to be zero, or baseline. The change in binding due to the protein present in FBS is then measured and reported as non-specific binding.

[4] = Blocking of streptavidin (SA) surface with 5% trehalose (blocker PWV shift); format: binding; details: 2 hrs
Protocol: (§1) 40 μl of 5% Trehalose solution was added to SA immobilized wells (0.05 mg/ml SA and 0.2 mg/ml SA) and control wells (Trehalose alone) and were allowed to bind for 2 hrs. The plates were washed and the peak wavelength value (PWV) shift was measured (See Table 6 and FIG. 2). The SA shift was the PWV of SA binding to the aldehyde surface, while the blocker shift was the PWV shift obtained after the blocker was allowed to bind to the unreacted aldehyde functional groups on the SA-immobilized aldehyde surface. The unreacted aldehydes are more easily accessed by the small blocker molecule than the bigger SA molecules. The blocker shift is lower with higher SA concentration likely because there are less aldehydes available for binding the blocker in these wells.

[5] = SA binding to the aldehyde surface (PWV shift)
Protocol: as §1

Compound: O=C(O)CCCC[C@@H]1SC[C@@H]2NC(=O)N[C@@H]21 [Biotin]
- theoretical shift resulting from Biotin binding (in parenthesis) (SA surface [1]; (244/55000) x 4 binding sites x 5.8 nm SA shift): 0.104 nm
- shift from biotin binding to SA surface (SA surface [1]; biotin in FBS 10%, 5% Trehalose): 0.09 nm
- shift from biotin binding to SA surface (SA surface [1]; biotin in FBS 10%, No Trehalose): 0.08 nm
- shift from biotin binding to SA surface (SA surface [1]; biotin in FBS 100%, 5% Trehalose): 0.1 nm
- shift from biotin binding to SA surface (SA surface [1]; biotin in FBS 100%, No Trehalose): 0.12 nm

Compound: NS(=O)(=O)C(=O)O [CBS, Carboxysulfonamide]
- PWV shift of CBS binding to CA (Carbonic Anhydrase (CA); CBS 0.05 μM): 0.000 nm
- PWV shift of CBS binding to CA (Carbonic Anhydrase (CA); CBS 0.10 μM): 0.001 nm
- PWV shift of CBS binding to CA (Carbonic Anhydrase (CA); CBS 0.20 μM): 0.003 nm
- PWV shift of CBS binding to CA (Carbonic Anhydrase (CA); CBS 0.39 μM): 0.005 nm
- PWV shift of CBS binding to CA (Carbonic Anhydrase (CA); CBS 0.78 μM): 0.010 nm
- PWV shift of CBS binding to CA (Carbonic Anhydrase (CA); CBS 1.56 μM): 0.020 nm
- PWV shift of CBS binding to CA (Carbonic Anhydrase (CA); CBS 3.13 μM): 0.037 nm
- PWV shift of CBS binding to CA (Carbonic Anhydrase (CA); CBS 6.25 μM): 0.045 nm
- PWV shift of CBS binding to CA (Carbonic Anhydrase (CA); CBS 12.50 μM): 0.054 nm
- PWV shift of CBS binding to CA (Carbonic Anhydrase (CA); CBS 25.00 μM): 0.054 nm
- PWV shift of CBS binding to CA (Carbonic Anhydrase (CA); CBS 50.00 μM): 0.062 nm

Compound: O=CC(O)CO (stereo not shown) [Glyceraldehydes, glyceraldehyde]
- PWV change after 2 hr incubation and wash ([2]; 2.5% solution in water): 1.75 nm
- PWV change after over night incubation and wash ([2]; 2.5% solution in water): 1.72 nm

Compound: OC[C@H]1O[C@H](O[C@H]2O[C@H](CO)[C@@H](O)[C@H](O)[C@H]2O)[C@H](O)[C@@H](O)[C@@H]1O [Trehalose]
- effect on non-specific binding of proteins from FBS to the SA surface (SA surface [3]): reduced the non-specific binding of proteins from FBS to the SA surface
- FBS 10% binding to SA surface (shift normalized to trehalose shift) (SA surface [3]; SA shift 2 nm surface): 2.41 nm
- FBS 100% binding to SA surface (shift normalized to trehalose shift) (SA surface [3]; SA shift 2 nm surface): 1.27 nm
- FBS 10% binding to SA surface (shift normalized to trehalose shift) (SA surface [3]; SA shift 5.8 nm surface): 0.62 nm
- FBS 100% binding to SA surface (shift normalized to trehalose shift) (SA surface [3]; SA shift 5.8 nm surface): 0.07 nm
- interference with biotin binding to SA (SA surface [1]): does not seem to interfere with biotin binding
- Blocker shift 5% Trehalose ([4]; aldehyde surface (no streptavidin)): 2.91 nm
- Blocker shift 5% Trehalose ([4]; wells immobilized with 0.05 mg/mL SA): 2.96 nm
- Blocker shift 5% Trehalose ([4]; wells immobilized with 0.2 mg/mL SA): 2.19 nm

Continued, values first:

- PWV change after 2 hr incubation and wash ([2]; 5% solution in water): 4.86 nm
- PWV change after over night incubation and wash ([2]; 5% solution in water): 4.82 nm
Compound: OC[C@H]1O[C@@H](O[C@H]2[C@H](O)[C@@H](O)C(O)O[C@@H]2CO)[C@H](O)[C@@H](O)[C@H]1O (stereo partly shown) [Lactose]

- SA shift ([5]; 0.05 mg/mL SA during immobilization): 2.00 Nm
- SA shift ([5]; 0.2 mg/mL SA during immobilization): 5.81 Nm
Compound: streptavidin [SA]
